Measurements as given in ChEMBL document CHEMBL1255249, “Urine bactericidal activity against Escherichia coli isolates exhibiting different resistance phenotypes/genotypes in an in vitro pharmacodynamic model simulating urine concentrations obtained after oral administration of a 400-milligram single dose of cefditoren-pivoxil” (Antimicrob Agents Chemother, 2008).
Converted amounts (≈) assume the structure as drawn. Values belong to the compound of their own block, whether it stands above or below them. The source made the active and inactive calls. No cut-off for these calls is given here.

Tests used:
Escherichia coli [1] = test: Antimicrobial activity against Escherichia coli S1 expressing penicillinase TEM-1; assay type: functional
Escherichia coli [2] = test: Antimicrobial activity against Escherichia coli S2 expressing penicillinase TEM-1; assay type: functional
Escherichia coli [3] = test: Antimicrobial activity against Escherichia coli S3 overexpressing penicillinase TEM-1; assay type: functional
Escherichia coli [4] = test: Antimicrobial activity against Escherichia coli S4 expressing inhibitor-resistant TEM-34; assay type: functional
Escherichia coli [5] = test: Antimicrobial activity against Escherichia coli S5 expressing extended-spectrum beta-lactamase TEM-116; assay type: functional
Escherichia coli [6] = test: Antimicrobial activity against Escherichia coli S6 expressing extended-spectrum beta-lactamase TEM-116 and SHV-12; assay type: functional
Escherichia coli [7] = test: Antimicrobial activity against Escherichia coli S7 expressing extended-spectrum beta-lactamase SHV-12 and penicillinase TEM-1; assay type: functional
Escherichia coli [8] = test: Antimicrobial activity against Escherichia coli S7 expressing extended-spectrum beta-lactamase SHV-12 and penicillinase TEM-1 in presence of beta-lactamase inhibitor clavulanic acid; assay type: functional
Escherichia coli [9] = test: Antimicrobial activity against Escherichia coli S6 expressing extended-spectrum beta-lactamase TEM-116 and SHV-12 in presence of beta-lactamase inhibitor clavulanic acid; assay type: functional
Escherichia coli [10] = test: Antimicrobial activity against Escherichia coli S5 expressing extended-spectrum beta-lactamase TEM-116 in presence of beta-lactamase inhibitor clavulanic acid; assay type: functional
Escherichia coli [11] = test: Antimicrobial activity against Escherichia coli S3 overexpressing penicillinase TEM-1 in presence of beta-lactamase inhibitor clavulanic acid; assay type: functional
Escherichia coli [12] = test: Antimicrobial activity against Escherichia coli S4 expressing inhibitor-resistant TEM-34 in presence of beta-lactamase inhibitor clavulanic acid; assay type: functional
Escherichia coli [13] = test: Antimicrobial activity against Escherichia coli S2 expressing penicillinase TEM-1 in presence of beta-lactamase inhibitor clavulanic acid; assay type: functional
Escherichia coli [14] = test: Antimicrobial activity against Escherichia coli S1 expressing penicillinase TEM-1 in presence of beta-lactamase inhibitor clavulanic acid; assay type: functional
Homo sapiens [15] = test: Drug level in human urine at […], po after 8 to 12 hrs; assay type: ADME, organism-based; set-up: route oral; details: in vivo
Escherichia coli [16] = test: Antimicrobial activity against Escherichia coli; assay type: functional
Homo sapiens [17] = test: Clearance in human at […], po after 3 hrs; assay type: ADME, organism-based; set-up: route oral; details: in vivo
Homo sapiens [18] = test: Clearance in human at […], po after 3 hrs to 5 hrs; assay type: ADME, organism-based; set-up: route oral; details: in vivo
Homo sapiens [19] = test: Clearance in human at […], po after 5 hrs to 12 hrs; assay type: ADME, organism-based; set-up: route oral; details: in vivo
Escherichia coli [20] = test: Antimicrobial activity against Escherichia coli S1 expressing penicillinase TEM-1 after 8 hrs; assay type: functional, organism-based
Escherichia coli [21] = test: Antimicrobial activity against Escherichia coli S2 expressing penicillinase TEM-1 after 8 hrs; assay type: functional, organism-based
Escherichia coli [22] = test: Antimicrobial activity against Escherichia coli S3 overexpressing penicillinase TEM-1 after 8 hrs; assay type: functional, organism-based
Escherichia coli [23] = test: Antimicrobial activity against Escherichia coli S4 expressing inhibitor-resistant TEM-34 after 8 hrs; assay type: functional, organism-based
Escherichia coli [24] = test: Antimicrobial activity against Escherichia coli S5 expressing extended-spectrum beta-lactamase TEM-116 after 8 hrs; assay type: functional, organism-based
Escherichia coli [25] = test: Antimicrobial activity against Escherichia coli S6 expressing extended-spectrum beta-lactamase TEM-116 and SHV-12 after 8 hrs; assay type: functional, organism-based
Escherichia coli [26] = test: Antimicrobial activity against Escherichia coli S7 expressing extended-spectrum beta-lactamase SHV-12 and penicillinase TEM-1 after 8 hrs; assay type: functional, organism-based
Escherichia coli [27] = test: Antimicrobial activity against Escherichia coli S1 expressing penicillinase TEM-1 after 12 hrs; assay type: functional, organism-based
Escherichia coli [28] = test: Antimicrobial activity against Escherichia coli S2 expressing penicillinase TEM-1after 12 hrs; assay type: functional, organism-based
Escherichia coli [29] = test: Antimicrobial activity against Escherichia coli S3 overexpressing penicillinase TEM-1after 12 hrs; assay type: functional, organism-based
Escherichia coli [30] = test: Antimicrobial activity against Escherichia coli S4 expressing inhibitor-resistant TEM-34 after 12 hrs; assay type: functional, organism-based
Escherichia coli [31] = test: Antimicrobial activity against Escherichia coli S5 expressing extended-spectrum beta-lactamase TEM-116 after 12 hrs; assay type: functional, organism-based
Escherichia coli [32] = test: Antimicrobial activity against Escherichia coli S6 expressing extended-spectrum beta-lactamase TEM-116 and SHV-12 after 12 hrs; assay type: functional, organism-based
Escherichia coli [33] = test: Antimicrobial activity against Escherichia coli S7 expressing extended-spectrum beta-lactamase SHV-12 and penicillinase TEM-1 after 12 hrs; assay type: functional, organism-based
Escherichia coli [34] = test: Antimicrobial activity against Escherichia coli S1 expressing penicillinase TEM-1 after 24 hrs; assay type: functional, organism-based
Escherichia coli [35] = test: Antimicrobial activity against Escherichia coli S2 expressing penicillinase TEM-1after 24 hrs; assay type: functional, organism-based
Escherichia coli [36] = test: Antimicrobial activity against Escherichia coli S3 overexpressing penicillinase TEM-1 after 24 hrs; assay type: functional, organism-based
Escherichia coli [37] = test: Antimicrobial activity against Escherichia coli S4 expressing inhibitor-resistant TEM-34 after 24 hrs; assay type: functional, organism-based
Escherichia coli [38] = test: Antimicrobial activity against Escherichia coli S5 expressing extended-spectrum beta-lactamase TEM-116 after 24 hrs; assay type: functional, organism-based
Escherichia coli [39] = test: Antimicrobial activity against Escherichia coli S6 expressing extended-spectrum beta-lactamase TEM-116 and SHV-12 after 24 hrs; assay type: functional, organism-based
Escherichia coli [40] = test: Antimicrobial activity against Escherichia coli S7 expressing extended-spectrum beta-lactamase SHV-12 and penicillinase TEM-1 after 24 hrs; assay type: functional, organism-based
Escherichia coli [41] = test: Antimicrobial activity against Escherichia coli S1 expressing penicillinase TEM-1 assessed as log reduction in bacterial count after 4 to 24 hrs in presence of magnesium ions; assay type: functional
Escherichia coli [42] = test: Antimicrobial activity against Escherichia coli S2 expressing penicillinase TEM-1 assessed as log reduction in bacterial count after 4 to 24 hrs in presence of magnesium ions; assay type: functional
Escherichia coli [43] = test: Antimicrobial activity against Escherichia coli S4 expressing inhibitor-resistant TEM-34 assessed as log reduction in bacterial count upto 8 hrs; assay type: functional
Escherichia coli [44] = test: Antimicrobial activity against Escherichia coli S3 overexpressing penicillinase TEM-1 assessed as log reduction in bacterial count upto 8 hrs; assay type: functional
Escherichia coli [45] = test: Antimicrobial activity against Escherichia coli S1 expressing penicillinase TEM-1 assessed as log reduction in bacterial count after 4 to 24 hrs in presence of calcium ions; assay type: functional
Escherichia coli [46] = test: Antimicrobial activity against Escherichia coli S2 expressing penicillinase TEM-1 assessed as log reduction in bacterial count after 4 to 24 hrs in presence of calcium ions; assay type: functional
Escherichia coli [47] = test: Antimicrobial activity against Escherichia coli S2 expressing penicillinase TEM-1 assessed as log reduction in bacterial count upto 8 hrs; assay type: functional
Escherichia coli [48] = test: Antimicrobial activity against Escherichia coli S1 expressing penicillinase TEM-1 assessed as log reduction in bacterial count upto 8 hrs; assay type: functional
Escherichia coli [49] = test: Antimicrobial activity against Escherichia coli S5 expressing extended-spectrum beta-lactamase TEM-116 assessed as log reduction in bacterial count from 3 to 24 hrs; assay type: functional
Escherichia coli [50] = test: Antimicrobial activity against Escherichia coli S5 expressing extended-spectrum beta-lactamase TEM-116 assessed as log reduction in bacterial count upto 8 hrs; assay type: functional
Escherichia coli [51] = test: Antimicrobial activity against Escherichia coli S6 expressing extended-spectrum beta-lactamase TEM-116 and SHV-12assessed as log reduction in bacterial count upto 8 hrs; assay type: functional

SMILES: CC1(C)S[C@@H]2[C@H](NC(=O)[C@H](N)c3ccc(O)cc3)C(=O)N2[C@H]1C(=O)O [AMOXICILLIN]
- MIC (Escherichia coli [1]): 8 mg/L (≈ 21.9 µM)
- MIC (Escherichia coli [2]): 4 mg/L (≈ 10.9 µM)
- MIC (Escherichia coli [3]): 32 mg/L (≈ 87.6 µM)
- MIC (Escherichia coli [4]): 32 mg/L (≈ 87.6 µM)
- MIC (Escherichia coli [5]): 4 mg/L (≈ 10.9 µM)
- MIC (Escherichia coli [6]): 8 mg/L (≈ 21.9 µM)
- MIC (Escherichia coli [7]): 16 mg/L (≈ 43.8 µM)
- MIC (Escherichia coli [8]): 8 mg/L
- MIC (Escherichia coli [9]): 4 mg/L
- MIC (Escherichia coli [10]): 2 mg/L
- MIC (Escherichia coli [11]): 16 mg/L
- MIC (Escherichia coli [12]): 16 mg/L
- MIC (Escherichia coli [13]): 2 mg/L
- MIC (Escherichia coli [14]): 4 mg/L

SMILES: CO/N=C(\C(=O)N[C@@H]1C(=O)N2C(C(=O)OCOC(=O)C(C)(C)C)=C(/C=C\c3scnc3C)CS[C@H]12)c1csc(N)n1 [CEFDITOREN PIVOXIL]
- Drug uptake (Homo sapiens [15]): 12.7 µg/mL
- MIC90 (Escherichia coli [16]): 0.5 mg/L (≈ 0.805 µM)
- MIC (Escherichia coli [1]): 0.25 mg/L (≈ 0.403 µM)
- MIC (Escherichia coli [2]): 1 mg/L (≈ 1.61 µM)
- MIC (Escherichia coli [3]): 1 mg/L (≈ 1.61 µM)
- MIC (Escherichia coli [4]): 2 mg/L (≈ 3.22 µM)
- MIC (Escherichia coli [5]): 0.5 mg/L (≈ 0.805 µM)
- MIC (Escherichia coli [6]): 8 mg/L (≈ 12.9 µM)
- MIC (Escherichia coli [7]): 16 mg/L (≈ 25.8 µM)
- CL (Homo sapiens [17]): 0.86 mL/min
- CL (Homo sapiens [18]): 2.88 mL/min
- CL (Homo sapiens [19]): 3.04 mL/min
- Activity (Escherichia coli [20]): Active
- Activity (Escherichia coli [21]): Active
- Activity (Escherichia coli [22]): Active
- Activity (Escherichia coli [23]): Active
- Activity (Escherichia coli [24]): Active
- Activity (Escherichia coli [25]): inactive
- Activity (Escherichia coli [26]): inactive
- Activity (Escherichia coli [27]): Active
- Activity (Escherichia coli [28]): Active
- Activity (Escherichia coli [29]): Active
- Activity (Escherichia coli [30]): Active
- Activity (Escherichia coli [31]): inactive
- Activity (Escherichia coli [32]): inactive
- Activity (Escherichia coli [33]): inactive
- Activity (Escherichia coli [34]): Active
- Activity (Escherichia coli [35]): Active
- Activity (Escherichia coli [36]): Active
- Activity (Escherichia coli [37]): Active
- Activity (Escherichia coli [38]): inactive
- Activity (Escherichia coli [39]): inactive
- Activity (Escherichia coli [40]): inactive
- FC (Escherichia coli [41]): >4
- FC (Escherichia coli [42]): >4
- FC (Escherichia coli [43]): >=6
- FC (Escherichia coli [44]): >=5
- FC (Escherichia coli [45]): >4
- FC (Escherichia coli [46]): >4
- FC (Escherichia coli [47]): >=4
- FC (Escherichia coli [48]): >=3
- FC (Escherichia coli [49]): >=3
- FC (Escherichia coli [50]): >=7
- FC (Escherichia coli [51]): >=8

SMILES: CO/N=C(\C(=O)N[C@@H]1C(=O)N2C(C(=O)O)=C(COC(N)=O)CS[C@H]12)c1ccco1 [CEFUROXIME]
- MIC (Escherichia coli [1]): 4 mg/L (≈ 9.43 µM)
- MIC (Escherichia coli [2]): 4 mg/L (≈ 9.43 µM)
- MIC (Escherichia coli [3]): 8 mg/L (≈ 18.9 µM)
- MIC (Escherichia coli [4]): 4 mg/L (≈ 9.43 µM)
- MIC (Escherichia coli [5]): 32 mg/L (≈ 75.4 µM)
- MIC (Escherichia coli [6]): > 128 mg/L
- MIC (Escherichia coli [7]): 32 mg/L (≈ 75.4 µM)

- MIC (Escherichia coli [1]): 0.007 mg/L (≈ 0.0211 µM)
- MIC (Escherichia coli [2]): > 32 mg/L
- MIC (Escherichia coli [7]): > 32 mg/L
SMILES: O=C(O)c1cn(C2CC2)c2cc(N3CCNCC3)c(F)cc2c1=O [CIPROFLOXACIN]
